Measurements published in patent US20230219963A1, “PYRROLO[2,3-D]PYRIMIDINE DERIVATIVES” (Pfizer Inc., priority 2020, published 2023).

Tested on: IL-10 induced pSTAT3
Assay: IL-10-induced pSTAT3 in human whole blood (lymphocytes)
Type: cell-based
Details: Lymphocyte, JAK1/TYK2, read-out: IL-10 induced pSTAT3, cellular potency IC50
Description: Human whole blood was collected from healthy donors via vein puncture into Vacutainer collection tubes containing sodium heparin in accordance with Pfizer protocols (Protocol No. GOHW RDP-01) approved by the Shulman Institutional Review Board. Blood was warmed to 37° C. priorto use. Human whole blood was aliquoted (90 μL/well) in 96-well, deep-well, V-bottom plates and treated with compounds (5 μL/well) at different concentrations up to 60 μM (0.2% DMSO final) at 37° C. for 60 minutes. This was followed by a challenge with IFNα (5000 U/mL), IFNγ (100 ng/mL), IL-6 (50 ng/mL), IL-10 (30 ng/mL), IL-12 (30 ng/mL), IL-15 (30 ng/mL), IL-21 (50 ng/mL), IL-23 (25 ng/mL), IL-27 (1000 ng/mL), EPO (2 U/mL), TSLP (50 ng/mL) or PBS and incubated for 15 minutes. Anti-cell surface antibodies were added 15 minutes prior to cytokine stimulation; anti-CD3-BV421 (0.5 μL/well) to IL-6-treated and TSLP-treated samples and anti-CD14-BV421 (0.5 μL/well) to IFNγ-treated samples. Samples were treated with warm 1×Lyse/Fix buffer (700 μL/well) to terminate activation and further incubated at 37° C. for 20 minutes to lyse red blood cells. Plates were centrifuged at 300×g for 5 minutes, supernatant was aspirated, and cells were washed with 800 μL/well of staining buffer (D-PBS containing 0.1% FBS and 0.01% sodium azide). Washed cell pellets were resuspended in 350 μL/well of prechilled 90% methanol and incubated at 4° C. for 30 minutes. After the removal of 90% methanol, cells were washed once with staining buffer. All samples were finally suspended in 150 μL/well of the desired anti-phospho-STAT antibodies at 1:150 dilution in staining buffer; anti-pSTAT1-AF647 in IFNγ treated samples; anti-pSTAT1-AF488 and anti-pSTAT3-AF647 in IL-6-treated samples, anti-pSTAT3-AF647 in IFNα, IL-10, IL-21, IL-23 and IL-27 treated samples, anti-pSTAT4-AF647 in IL-12 treated samples, anti-pSTAT5-AF-647 in EPO, IL-15 and TSLP-treated samples. Human primary keratinocytes were cultured in DermaLife™ medium with supplement kit to expand cell population. Cell passages 2 to 5 were used in the assays. Cells were harvested at ˜80% confluence, suspended in warm DermaLife™ medium, aliquoted (90 μL/well) in 96-well, deep-well, V-bottom plates, and incubated at 37° C. for 30 minutes. Cells were then treated with compounds (0.0003 to 20 μM) for 60 minutes and followed by stimulation with IL-4 (2 ng/mL) or IL-13 (20 ng/mL) at 37° C. for 15 minutes. […]
After overnight incubation at 4° C., anti-pSTAT stained samples were transferred into 96-well polypropylene U-bottom plates and flow cytometric analysis was performed on a LSR Fortessa™ equipped with a HTS plate loader. […] Background fluorescence was defined using unstimulated cells and a gate was placed at the foot of the peak to include ˜0.5% gated population. […]

C[C@H](O)CS(=O)(=O)N[C@H]1C[C@@H](N(C)c2ncnc3[nH]ccc23)C1 (single isomer, unassigned) [IA (M2)]
IC50: 233 nM

C[C@@H](O)CS(=O)(=O)N[C@H]1C[C@@H](N(C)c2ncnc3[nH]ccc23)C1 (single isomer, unassigned) [IC (M3)]
IC50: 488 nM

CN(c1ncnc2[nH]ccc12)[C@H]1C[C@@H](NS(=O)(=O)CCCO)C1 [IB (M1), 3-Hydroxy-N-(cis-3-(methyl(7H-pyrrolo[2,3-d]pyrimidin-4-yl)amino)cyclobutyl)propane-1-sulfonamide]
IC50: 675 nM
